From patent publication US9611262B2, “Substituted 2-azabicycles and their use as orexin receptor modulators” (JANSSEN PHARMACEUTICA NV, priority 2014, dated 2017) come the findings set out here.

Structures are written as SMILES.

The assay addresses human orexin 2 receptor (Homo sapiens (Human), UniProt O43614). The experiment in a line: Human orexin 2 receptor radioligand binding ([3H]-EMPA competition). The following applies: HEK293 stably expressing human orexin 2 receptor; 2 nM [3H]-EMPA; averages of 2-20 runs; read-out: hOX2 Ki. The protocol: The in vitro affinity of the compounds of the invention for the rat/human orexin 1 and human orexin 2 receptors was determined by competitive radioligand binding using [^3H](1-(5-(2-fluoro-phenyl)-2-methyl-thiazol-4-yl)-1-((S)-2-(5-phenyl-(1,3,4)oxadiazol-2-ylmethyl)-pyrrolidin-1-yl)-methanone) (Langmead et al., 2004) and [^3H]EMPA (n-ethyl-2[96-methoxy-pyridin-3-yl)-(toluene-2-sulfonyl)-amino]-N-pyridin-3-ylmethyl acetamide), respectively (Langmead et al., 2004, British Journal of Pharmacology 141:340-346; Malherbe et al., 2004, British Journal of Pharmacology 156:1326-41).
Data are analyzed using pc-Sandy macro and graphed on Graphpad Prism 5. For analysis, each concentration point is averaged from triplicate values and the averaged values are plotted on Graphpad Prism. The IC50 was determined by applying the following equation (GraphPad Prism 5.0, San Diego) for one site competition where X=log (concentration) and Y=specific binding. Top denotes the total [^3H]— (1-(5-(2-fluoro-phenyl)-2-methyl-thiazol-4-yl)-1-((S)-2-(5-phenyl-(1,3,4)oxadiazol-2-ylmethyl)-pyrrolidin-1-yl)-methanone) binding, bottom denotes the nonspecific [^3H]— (1-(5-(2-fluoro-phenyl)-2-methyl-thiazol-4-yl)-1-((S)-2-(5-phenyl-(1,3,4)oxadiazol-2-ylmethyl)-pyrrolidin-1-yl)-methanone) binding. Graphpad Prism calculates Ki value from IC50 and the pre-determined Kd values for [^3H]— (1-(5-(2-fluoro-phenyl)-2-methyl-thiazol-4-yl)-1-((S)-2-(5-phenyl-(1,3,4)oxadiazol-2-ylmethyl)-pyrrolidin-1-yl)-methanone) and [^3H]-EMPA. The Ki for each compound is then uploaded into 3DX. Each run comprises individual compounds in triplicate. The data in Table 1 and Table 2 represent averages from between 2-20 runs
Human Orexin 2 Receptor Radioligand Binding Studies
HEK293 stably expressing human orexin 2 receptor (Genebank accession number NM_001526) were grown to confluency in DMEM (Hyclone, cat # SH30022), 10% FBS, 1× Pen/Strep, 1× NaPyruvate, 10 mM HEPES, 600 μg/ml G418 media on 150 cm^2 tissue culture plates, washed with 5 mM EDTA in PBS (HyClone Dulbecco's Phosphate Buffered Saline 1× with Calcium and Magnesium, Cat # SH30264.01, hereafter referred to simply as PBS) and scraped into 50 ml tubes. After centrifugation (2K×G, 5 min at 4° C.), the supernatant was aspirated and the pellets frozen and stored at −80° C. Cells were resuspended in PBS in the presence of 1 tablet of protease inhibitor cocktail (Roche, Cat. #11836145001) per 50 mL. […] Compounds were solubilized in 100% DMSO (Acros Organics, Cat. #61042-1000) and tested over a range of 7 concentration (from 0.1 nM to 10 μM). The final concentration of DMSO in the reactions is equal to or less than 0.1%. Total and nonspecific binding was determined in the absence and presence of 10 μM almorexant. The total volume of each reaction is 200 μL (20 μL of diluted compounds, 80 μL of [^3H]-EMPA diluted in PBS and 100 μL of the cell suspension). Reactions were run for 60 min at room temperature and terminated by filtration through GF/C filter plates (PerkinElmer, Cat. #6005174) presoaked in 0.3% polyethylenimine using the cell harvester (PerkinElmer Filtermate). The plates were washed 3 times by aspirating 30 ml PBS through the plates. Plates were dried in 55° C. oven for 60 min, scintillation fluid was added, and the radioactivity was counted on a Topcount (Packard).

By Ki is commonly meant a measure of affinity in units of concentration, obtained from inhibition or displacement.

human orexin 2 receptor, sequence (O43614 whole entry): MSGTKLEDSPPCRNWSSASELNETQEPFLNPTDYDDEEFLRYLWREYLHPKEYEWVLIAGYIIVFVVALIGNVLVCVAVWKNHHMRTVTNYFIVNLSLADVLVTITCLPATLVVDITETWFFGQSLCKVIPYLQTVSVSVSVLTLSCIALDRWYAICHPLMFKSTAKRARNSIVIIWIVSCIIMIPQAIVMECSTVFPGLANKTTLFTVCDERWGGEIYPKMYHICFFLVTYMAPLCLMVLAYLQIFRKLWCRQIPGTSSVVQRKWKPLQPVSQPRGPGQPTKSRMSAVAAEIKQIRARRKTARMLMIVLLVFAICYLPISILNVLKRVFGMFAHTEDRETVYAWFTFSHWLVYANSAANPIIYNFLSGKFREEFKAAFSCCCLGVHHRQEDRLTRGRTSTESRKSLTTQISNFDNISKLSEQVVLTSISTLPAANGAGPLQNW

Turning to `Cc1ccc(-n2nccn2)c(C(=O)N2C(C)C3CC(Nc4cnc(C(F)(F)F)cn4)C2C3)n1` (single isomer, unassigned) [Example 6, (R/S)-(6-methyl-3-(2H-1,2,3-triazol-2-yl)pyridin-2-yl)(3-methyl-6-((5-(trifluoromethyl)pyrazin-2-yl)amino)-2-azabicyclo[2.2.1]heptan-2-yl)methanone], the Ki came to 664 nM. For `Cc1ccc(-n2nccn2)c(C(=O)N2C(C)C3CC(Nc4cnc(C(F)(F)F)cn4)C2C3)n1` (single isomer, unassigned) [Example 6A, (6-methyl-3-(2H-1,2,3-triazol-2-yl)pyridin-2-yl)((1R*,3R*,4R*,6S*)-3-methyl-6-((5-(trifluoromethyl)pyrazin-2-yl)amino)-2-azabicyclo[2.2.1]heptan-2-yl)methanone] the value was > 10000 nM; for `Cc1ccc(-n2nccn2)c(C(=O)N2C(C)C3CC(Nc4cnc(C(F)(F)F)cn4)C2C3)n1` (single isomer, unassigned) [Example 6B, (6-methyl-3-(2H-1,2,3-triazol-2-yl)pyridin-2-yl)((1S*,3S*,4S*,6R*)-3-methyl-6-((5-(trifluoromethyl)pyrazin-2-yl)amino)-2-azabicyclo[2.2.1]heptan-2-yl)methanone], 154 nM.

Turning to `CC1C2CC(Oc3ccc(C(F)(F)F)cn3)C(C2)N1C(=O)c1ccc(F)cc1-c1ncccn1` (single isomer, unassigned) [Example 17A, (4-fluoro-2-(pyrimidin-2-yl)phenyl)((1R*,3S*,4S*,6S*)-3-methyl-6-((5-(trifluoromethyl)pyridin-2-yl)oxy)-2-azabicyclo[2.2.1]heptan-2-yl)methanone], the inhibitory constant (Ki) is > 10000 nM. Turning to `CC1C2CC(Oc3ccc(C(F)(F)F)cn3)C(C2)N1C(=O)c1ccc(F)cc1-c1ncccn1` (single isomer, unassigned) [Example 17B, (4-fluoro-2-(pyrimidin-2-yl)phenyl)((1S*,3R*,4R*,6R*)-3-methyl-6-((5-(trifluoromethyl)pyridin-2-yl)oxy)-2-azabicyclo[2.2.1]heptan-2-yl)methanone], the inhibition constant (Ki) came to 947 nM. `CC1C2CC(Oc3ccc(C(F)(F)F)cn3)C(C2)N1C(=O)c1cc(F)ccc1-c1ncccn1` (single isomer, unassigned) [Example 18A, (5-fluoro-2-(pyrimidin-2-yl)phenyl)((1R*,3S*,4S*,6S*)-3-methyl-6-((5-(trifluoromethyl)pyridin-2-yl)oxy)-2-azabicyclo[2.2.1]heptan-2-yl)methanone]: the inhibition constant Ki is > 10000 nM. For `CC1C2CC(Oc3ccc(C(F)(F)F)cn3)C(C2)N1C(=O)c1cc(F)ccc1-c1ncccn1` (single isomer, unassigned) [Example 18B, (5-fluoro-2-(pyrimidin-2-yl)phenyl)((1S*,3R*,4R*,6R*)-3-methyl-6-((5-(trifluoromethyl)pyridin-2-yl)oxy)-2-azabicyclo[2.2.1]heptan-2-yl)methanone] the value was 879 nM; for `CC1C2CC(Oc3ccc(C(F)(F)F)cn3)C(C2)N1C(=O)c1cccc(F)c1-c1ncc(F)cn1` (single isomer, unassigned) [Example 20A, (3-fluoro-2-(5-fluoropyrimidin-2-yl)phenyl)((1R*,3S*,4S*,6S*)-3-methyl-6-((5-(trifluoromethyl)pyridin-2-yl)oxy)-2-azabicyclo[2.2.1]heptan-2-yl)methanone], > 10000 nM; for `CC1C2CC(Oc3ccc(C(F)(F)F)cn3)C(C2)N1C(=O)c1cccc(F)c1-c1ncc(F)cn1` (single isomer, unassigned) [Example 20B, (3-fluoro-2-(5-fluoropyrimidin-2-yl)phenyl)((1S*,3R*,4R*,6R*)-3-methyl-6-((5-(trifluoromethyl)pyridin-2-yl)oxy)-2-azabicyclo[2.2.1]heptan-2-yl)methanone], 1890 nM. For the molecule `CC1C2CC(Nc3cnc(C(F)(F)F)cn3)C(C2)N1C(=O)c1ccccc1-n1nccn1` (single isomer, unassigned) [Example 68A, (2-(2H-1,2,3-triazol-2-yl)phenyl)((1R*,3S*,4R*,6S*)-3-methyl-6-((5-(trifluoromethyl)pyrazin-2-yl)amino)-2-azabicyclo[2.2.1]heptan-2-yl)methanone], the inhibition constant Ki was > 10000 nM. For the molecule `CC1C2CC(Nc3cnc(C(F)(F)F)cn3)C(C2)N1C(=O)c1ccccc1-n1nccn1` (single isomer, unassigned) [Example 68B, (2-(2H-1,2,3-triazol-2-yl)phenyl)((1S*,3R*,4S*,6R*)-3-methyl-6-((5-(trifluoromethyl)pyrazin-2-yl)amino)-2-azabicyclo[2.2.1]heptan-2-yl)methanone], the Ki was found to be 259 nM. For `Cc1ccc(-n2nccn2)c(C(=O)N2C(C)C3CC(Nc4cnc(C(F)(F)F)cn4)C2C3)n1` (single isomer, unassigned) [Example 69, (R/S)-(6-methyl-3-(2H-1,2,3-triazol-2-yl)pyridin-2-yl)(3-methyl-6-((5-(trifluoromethyl)pyrazin-2-yl)amino)-2-azabicyclo[2.2.1]heptan-2-yl)methanone] the value was 345 nM; for `Cc1ccc(-n2nccn2)c(C(=O)N2C(C)C3CC(Nc4cnc(C(F)(F)F)cn4)C2C3)n1` (single isomer, unassigned) [Example 69A, (6-methyl-3-(2H-1,2,3-triazol-2-yl)pyridin-2-yl)((1R*,3S*,4R*,6S*)-3-methyl-6-((5-(trifluoromethyl)pyrazin-2-yl)amino)-2-azabicyclo[2.2.1]heptan-2-yl)methanone], > 10000 nM. In the case of `Cc1ccc(-n2nccn2)c(C(=O)N2C(C)C3CC(Nc4cnc(C(F)(F)F)cn4)C2C3)n1` (single isomer, unassigned) [Example 69B, (6-methyl-3-(2H-1,2,3-triazol-2-yl)pyridin-2-yl)((1S*,3R*,4S*,6R*)-3-methyl-6-((5-(trifluoromethyl)pyrazin-2-yl)amino)-2-azabicyclo[2.2.1]heptan-2-yl)methanone], the Ki came out at 236 nM. As for `[2H]C([2H])([2H])[C@]1([2H])[C@H]2C[C@@H](Oc3ccc(C(F)(F)F)cn3)[C@H](C2)N1C(=O)c1ncc(C)cc1-n1nccn1` [Example 166, [(1R,2R,4S,5R)-2-deuterio-2-(trideuteriomethyl)-5-[[5-(trifluoromethyl)-2-pyridyl]oxy]-3-azabicyclo[2.2.1]heptan-3-yl]-[5-methyl-3-(triazol-2-yl)-2-pyridyl]methanone], the inhibition constant Ki was found to be 1100 nM. Regarding `[2H]C([2H])([2H])[C@]1([2H])[C@H]2C[C@@H](Oc3ccc(C(F)(F)F)cn3)[C@H](C2)N1C(=O)c1cc(F)ccc1-c1ncccn1` [Example 167, [(1R,2R,4S,5R)-2-deuterio-2-(trideuteriomethyl)-5-[[5-(trifluoromethyl)-2-pyridyl]oxy]-3-azabicyclo[2.2.1]heptan-3-yl]-(5-fluoro-2-pyrimidin-2-yl-phenyl)methanone], the inhibitory constant (Ki) came out at 767 nM. For the molecule `[2H]C1([2H])[C@H]2C[C@@H]([C@@H]1Oc1ccc(C(F)(F)F)cn1)N(C(=O)c1ncc(C)cc1-n1nccn1)[C@@H]2C` [Example 200, [(1R,3R,4S,6R)-2,2-dideuterio-6-methyl-3-[[5-(trifluoromethyl)-2-pyridyl]oxy]-5-azabicyclo[2.2.1]heptan-5-yl]-[5-methyl-3-(triazol-2-yl)-2-pyridyl]methanone], the Ki worked out at 1200 nM.
